The source of these data is patent publication US9339522B2, “Method for regulating blood glucose level” (SINPHAR PHARMACEUTICAL CO., LTD., priority 2013, dated 2016).

For series [1], the system named is human hepatocellular liver carcinoma cell line (HepG2). The series is described as follows: Carbohydrate consumption assay in HepG2 cells. It is filed as cell-based. The procedure: A carbohydrate consumption assay was conducted by using human hepatocellular liver carcinoma cell line (HepG2, Bioresource Collection and Research Center, BCRC number: 60025). The cells were treated with 1000 μg/ml glucose, and then treated with 100 nM insulin, 50 μg/ml Cistanche tubulosa extract (CTE), 12.5 μg/ml of echinacoside, 1.25 μg/ml of acteoside, or 2.25 μg/ml of isoacteoside (i.e., an active component by an amount of what it presents in the extract). After 1 hour, the carbohydrate consumption level was determined. The results are shown in FIG. 10, wherein the data were shown as mean±standard deviation (n=3); ***P<0.001 (as compared to the control group).
To further confirm if the active components that are present in Cistanche tubulosa extract have the effect of accelerating liver cells to uptake blood sugar, a carbohydrate consumption assay as described above was conducted by using different concentrations of Cistanche tubulosa extract, echinacoside, acteoside and isoacteoside to treated the HepG2 cells. The results are shown in FIG. 11, wherein the data were shown as mean±standard deviation (n=3); **P<0.01; ***P<0.001 (as compared to the control group); #P<0.05 (as compared to the insulin group).

A further series relates to liver cells. To be noted: acteoside obtained from plantago, CN 102283854 A; cited from earlier work.
Series [2] concerns mice having type I diabetes or type II diabetes induced by different medicaments. The conditions noted are these: mice with induced type I or type II diabetes; acteoside obtained from plantago; CN 102283854 A; cited from earlier work.
A short description of series [3]: Body weight and caloric intake of diabetic SD rats during 6 weeks treatment. It is filed as in vivo, SD (Sprague-Dawley) rats. The conditions noted are these: FIG. 1; measured weekly; comparison between groups; rosiglitazone 0.571 mg/kg, CTE 80, 160, 320 mg/kg oral once daily 6 weeks. The procedure: 4-week-old male SD (Sprague-Dawley) rats were fed for one week, and then randomly divided into six groups (10 rats in each group), including five experimental groups and a control group. The rats in the experimental groups were intraperitoneally injected with 230 mg/kg body weight of nicotinamide, and then intraperitoneally injected with 65 mg/kg body weight of streptozocin to induced diabetes mellitus (the DM group). The control group was intraperitoneally injected with the same volume of a citrate buffer (pH 4.5). After a week, the fasting blood glucose of the induced diabetic rats in the experimental groups were measured, to confirmed the fasting blood glucose>[…]. The rats were then fed with a 45% high fat diet (HFD) for 6 weeks. Then, using the dosage shown in Table 1, the rats were orally administered with 0.571 mg/kg body weight of rosiglitazone (a medicine for regulating blood glucose levels, which is an insulin sensitizer) (DMR group) or 80 mg/kg body weight of Cistanche tubulosa extract (CTE) (DME1 group), 160 mg/kg body weight of CTE (DME2 group), or 320 mg/kg body weight of CTE (DME4 group), once daily for 6 weeks. The rats in the control group and the DM group were administered with double distilled water once daily for 6 weeks. The body weight of the rats was measured weekly and the caloric intake was calculated. […]

For series [4], the system named is induced diabetic rats. The series is described as follows: Determination of plasma insulin concentration (ELISA). It is filed as in vivo, SD (Sprague-Dawley) rats. The conditions noted are these: DMR group: rosiglitazone 0.571 mg/kg body weight oral once daily 6 weeks, DM + 45% HFD rats, mean, n = 10. How it is done:
(§1) 4-week-old male SD (Sprague-Dawley) rats were fed for one week, and then randomly divided into six groups (10 rats in each group), including five experimental groups and a control group. The rats in the experimental groups were intraperitoneally injected with 230 mg/kg body weight of nicotinamide, and then intraperitoneally injected with 65 mg/kg body weight of streptozocin to induced diabetes mellitus (the DM group). The control group was intraperitoneally injected with the same volume of a citrate buffer (pH 4.5). […] The rats in the control group and the DM group were administered with double distilled water once daily for 6 weeks. The body weight of the rats was measured weekly and the caloric intake was calculated.
(§2) After the above glucose tolerance test, the rats were sacrificed, and the blood samples were taken from the celiac artery. The blood samples were centrifuged at 3000 rpm, 4° C. for 15 minutes. The supernatant was collected, which is the plasma. Other tissue of the rats was also taken out and weighed, and then stored at −80° C. for the following biochemical data analysis.
(In general: ELISA stands for enzyme-linked immunosorbent assay.)

For series [5], the system named is induced diabetic rats. The series is described as follows: Over-oxidation of plasma lipid (plasma malondialdehyde). It is filed as in vivo, SD (Sprague-Dawley) rats. To be noted: DMR group: rosiglitazone 0.571 mg/kg body weight oral once daily 6 weeks, DM + 45% HFD rats, mean, n = 10. How it is done: as §1, §2
Series [6] has as its system induced diabetic rats. The series is described as follows: Determination of total triglyceride concentration in plasma. It is filed as in vivo, SD (Sprague-Dawley) rats. To be noted: DMR group: rosiglitazone 0.571 mg/kg body weight oral once daily 6 weeks, DM + 45% HFD rats, mean, n = 10. The procedure:
as §1, §2

For series [7], the system named is induced diabetic rats. The series is described as follows: Determination of fasting plasma glucose concentration. It is filed as in vivo, SD (Sprague-Dawley) rats. The conditions noted are these: DMR group: rosiglitazone 0.571 mg/kg body weight oral once daily 6 weeks; DM + 45% HFD rats; mean, n = 10. The procedure:
as §1, §2

Series [8] deals with induced diabetic rats. The series is described as follows: Plasma antioxidant enzymes (SOD, catalase, GPx). Type of series: in vivo, SD (Sprague-Dawley) rats. To be noted: DMR group: rosiglitazone 0.571 mg/kg body weight oral once daily 6 weeks, DM + 45% HFD rats, mean, n = 10. The procedure: as §1, §2
It has been known that both Type I diabetes mellitus and Type II diabetes mellitus may cause the decreased expression of antioxidant enzymes in the body, and thus, increases oxidative stress. In this experiment, the concentrations of superoxide dismutase (SOD) catalase, and glutathione peroxidase (GPx) in the plasma of the rats were analyzed by an SOD detection kit, a catalase detection kit, and a GPx detection kit (Eugene-Chen CO., LTD, TW), respectively, to analyze the effect of CTE on the expression levels of antioxidant enzymes.

Series [9] has as its system induced diabetic rats. The series is described as follows: Homeostasis model assessment equation of insulin resistance (HOMA-IR). It is filed as in vivo, SD (Sprague-Dawley) rats. To be noted: DMR group: rosiglitazone 0.571 mg/kg body weight oral once daily 6 weeks; DM + 45% HFD rats; mean, n = 10. The procedure:
4-week-old male SD (Sprague-Dawley) rats were fed for one week, and then randomly divided into six groups (10 rats in each group), including five experimental groups and a control group. The rats in the experimental groups were intraperitoneally injected with 230 mg/kg body weight of nicotinamide, and then intraperitoneally injected with 65 mg/kg body weight of streptozocin to induced diabetes mellitus (the DM group). The control group was intraperitoneally injected with the same volume of a citrate buffer (pH 4.5). After a week, the fasting blood glucose of the induced diabetic rats in the experimental groups were measured, to confirmed the fasting blood glucose>[…]. The rats were then fed with a 45% high fat diet (HFD) for 6 weeks. […] The body weight of the rats was measured weekly and the caloric intake was calculated. […]
The homeostasis model assessment equation of insulin resistance (HOMA-IR) was calculated by the formula as follows: HOMA-IR=fasting plasma insulin concentration (mU/ml)×fasting plasma glucose concentration (mmole/L)÷22.5

For series [10], the system named is induced diabetic rats. The series is described as follows: Determination of plasma leptin concentration (enzyme immunoassay). Type of series: in vivo, SD (Sprague-Dawley) rats. To be noted: DMR group: rosiglitazone 0.571 mg/kg body weight oral once daily 6 weeks, DM + 45% HFD rats, mean, n = 10. How it is done: as §1, §2
Series [11] can be described thus: Weights of the liver, kidney, heart, and abdominal fat of the rats. Type of series: in vivo, SD (Sprague-Dawley) rats. To be noted: DMR group: rosiglitazone 0.571 mg/kg body weight oral once daily 6 weeks; DM + 45% HFD rats; mean, n = 10. The procedure: 4-week-old male SD (Sprague-Dawley) rats were fed for one week, and then randomly divided into six groups (10 rats in each group), including five experimental groups and a control group. The rats in the experimental groups were intraperitoneally injected with 230 mg/kg body weight of nicotinamide, and then intraperitoneally injected with 65 mg/kg body weight of streptozocin to induced diabetes mellitus (the DM group). The control group was intraperitoneally injected with the same volume of a citrate buffer (pH 4.5). After a week, the fasting blood glucose of the induced diabetic rats in the experimental groups were measured, to confirmed the fasting blood glucose>[…]. The rats were then fed with a 45% high fat diet (HFD) for 6 weeks. Then, using the dosage shown in Table 1, the rats were orally administered with 0.571 mg/kg body weight of rosiglitazone (a medicine for regulating blood glucose levels, which is an insulin sensitizer) (DMR group) or 80 mg/kg body weight of Cistanche tubulosa extract (CTE) (DME1 group), 160 mg/kg body weight of CTE (DME2 group), or 320 mg/kg body weight of CTE (DME4 group), once daily for 6 weeks. The rats in the control group and the DM group were administered with double distilled water once daily for 6 weeks. The body weight of the rats was measured weekly and the caloric intake was calculated. The results are shown in FIG. 1 (body weight) and FIG. 2 (caloric intake).
In this experiment, the weights of the liver, kidney, heart, and abdominal fat of the rats treated with different conditions for 6 weeks were determined.

In series [12] the test system is induced diabetic rats. The series is described as follows: Liver and kidney function indicators in plasma (urea, creatinine, ALT, AST). The conditions noted are these: DMR group: rosiglitazone 0.571 mg/kg body weight oral once daily 6 weeks, DM + 45% HFD rats, mean, n = 10. It is filed as in vivo, SD (Sprague-Dawley) rats. How it is done: as §1, §2
It has been known that diabetes mellitus may cause a lot of complications.

Series [13] has as its system induced diabetic rats. The series is described as follows: Determination of total cholesterol concentration in plasma. It is filed as in vivo, SD (Sprague-Dawley) rats. To be noted: DMR group: rosiglitazone 0.571 mg/kg body weight oral once daily 6 weeks, DM + 45% HFD rats, mean, n = 10. The procedure:
as §1, §2

Where [14] appears, read: FIG. 11, 5 μg/ml and 50 μg/ml, HepG2, compared to the control group, dose dependence.
The mark [15] stands for this setting: FIG. 11, very low concentration, such as 5 μg/ml, HepG2.

As for `C[C@@H]1O[C@@H](O[C@@H]2[C@@H](O)[C@H](OCCc3ccc(O)c(O)c3)O[C@H](CO)[C@H]2OC(=O)/C=C/c2ccc(O)c(O)c2)[C@H](O)[C@H](O)[C@H]1O` [acteoside], the Carbohydrate consumption level entry in series [1] (FIG. 10, 1.25 μg/ml, HepG2, 1000 μg/ml glucose, after 1 hour, compared to the control group) is “not obvious”; in [1] (setting [14]), “effectively increase”. For the same compound, the Consumption of glucose entry with liver cells was “effective in promoting the consumption of glucose”. Moreover, the “Fasting blood glucose level” value in [2] was “decrease”. Moreover, the Serum insulin level result in [2] is reported as “enhancing”.

On to `C[C@@H]1O[C@@H](O[C@@H]2[C@@H](O)[C@H](OCCc3ccc(O)c(O)c3)O[C@H](CO[C@@H]3O[C@H](CO)[C@@H](O)[C@H](O)[C@H]3O)[C@H]2OC(=O)/C=C/c2ccc(O)c(O)c2)[C@H](O)[C@H](O)[C@H]1O` [echinacoside], for which the Carbohydrate consumption level result is reported as “effectively increase” in series [1] (FIG. 10, 12.5 μg/ml, HepG2, 1000 μg/ml glucose, after 1 hour, compared to the control group); “effectively increase” in series [1] (setting [14]); “increase” in series [1] (setting [15]).

Turning to `C[C@@H]1O[C@@H](O[C@@H]2[C@@H](O)[C@H](OCCc3ccc(O)c(O)c3)O[C@H](COC(=O)/C=C/c3ccc(O)c(O)c3)[C@H]2O)[C@H](O)[C@H](O)[C@H]1O` [isoacteoside], the Carbohydrate consumption level entry in [1] (FIG. 10, 2.25 μg/ml, HepG2, 1000 μg/ml glucose, after 1 hour, compared to the control group) is reported as “effectively increase”; in series [1] (setting [14]), “effectively increase”; in [1] (setting [15]) it was “increase”.

Consider `CN(CCOc1ccc(CC2SC(=O)NC2=O)cc1)c1ccccn1` (stereo not shown) [rosiglitazone], for which the Body weight entry in [3] is on record as “no significant difference”. In addition, in the series on induced diabetic rats [4], the Insulin is 3.57 ng/mL. Moreover, the Malondialdehyde in the series on induced diabetic rats [5] was 13.38 nM/ml. Besides, the The total triglyceride with induced diabetic rats [6] is 62.77 mg/dL. In addition, the Fasting blood glucose in the series with induced diabetic rats [7] came to 134.37 mg/dL. Moreover, in the series on induced diabetic rats [8], the Catalase was found to be 60.05 U/mg protein, the Glutathione peroxidase was determined as 811.08 U/mg protein and the Superoxide dismutase turned out to be 0.65 U/mg protein. Moreover, the HOMA-IR with induced diabetic rats [9] worked out at 2.37 μg · mmole/L^2. Also, the Leptin with induced diabetic rats [10] was determined as 6.38 ng/mL. In addition, in series [11], the “Abdominal fat weight, percentage compared to body weight” value is 2.49%; the “Heart weight, percentage compared to body weight” value is 0.34%; the “Kidney weight, percentage compared to body weight” value is on record as 0.34%; the “Liver weight, percentage compared to body weight” value was found to be 3.21%. For the same compound, in the series on induced diabetic rats [12], the ALT is recorded as 29.88 U/L, the AST stood at 38.24 U/L, the AST/ALT is 1.34 and the Creatinine was 1.19 mg/dL. Further, the Urea in the series with induced diabetic rats [12] worked out at 19.14 mg/dL. In addition, in the series on induced diabetic rats [13], the Total cholesterol was 106.90 mg/dL.
